Experiments:
[1] = target: T1, Solute carrier family 2, facilitated glucose transporter member 9 (Homo sapiens, UniProt Q9NRM0); assay: Substrate uptake by the Glucose Transporter Type 9 (GLUT9, SLC2A9) as assessed by the fluorescent FLIPR membrane potential dye in HEK-293 cells stably transfected with SLC2A9 isoform 1 (PubChem AID: 1794831); assay type: functional, cell-based, HEK293
T1 sequence (Q9NRM0 whole entry): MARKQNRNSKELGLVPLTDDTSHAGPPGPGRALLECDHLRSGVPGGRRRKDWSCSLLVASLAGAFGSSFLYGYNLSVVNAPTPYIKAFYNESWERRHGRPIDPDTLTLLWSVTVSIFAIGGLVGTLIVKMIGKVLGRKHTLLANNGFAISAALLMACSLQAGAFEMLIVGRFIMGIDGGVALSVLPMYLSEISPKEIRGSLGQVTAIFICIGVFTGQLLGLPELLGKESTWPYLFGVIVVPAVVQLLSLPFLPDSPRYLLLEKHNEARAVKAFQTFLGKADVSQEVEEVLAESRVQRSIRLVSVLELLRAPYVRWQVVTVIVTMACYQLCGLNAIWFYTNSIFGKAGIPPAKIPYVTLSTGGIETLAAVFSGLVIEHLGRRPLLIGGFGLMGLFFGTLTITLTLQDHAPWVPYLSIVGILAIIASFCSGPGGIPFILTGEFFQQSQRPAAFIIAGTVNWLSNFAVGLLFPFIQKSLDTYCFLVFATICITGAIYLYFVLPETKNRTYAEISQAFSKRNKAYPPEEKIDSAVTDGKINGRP

[2] = target: T1, Solute carrier family 2, facilitated glucose transporter member 9; assay: Substrate uptake by the Glucose Transporter Type 9 (GLUT9, SLC2A9) as assessed by the fluorescent FLIPR membrane potential dye in HEK-293 cells stably transfected with SLC2A9 isoform 2 (PubChem AID: 1794831); assay type: functional, cell-based, HEK293

EC50 [1] [µM]	EC50 ([2]; read-out: EC50) [mM]	EC50 ([2]; hek293)	Compound
1000	1	–	O=C(O)c1cc(=O)[nH]c(=O)[nH]1 [OROTIC ACID]
300	–	Ec50 Cannot Be Calculated For Isoform 2	Oc1nc(O)c2nc(O)[nH]c2n1 [URIC ACID]

From ChEMBL document CHEMBL5209567, “Membrane potential based assay for SLC2A9 using HEK-293 SLC2A9 OE cells” (2022)
